Assay results: PubChem BioAssay (NCI)
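Where inhibition never reached the appropriate level, the endpoint shown equals the highest concentration tested. Otherwise, values were interpolated linearly from a five-concentration, 48-hour dose response in 96-well plates. At the TGI there is no net growth.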

Experiments:
Assay in all cases: inhibition of tumour cell growth, NCI panel, 48 h
T-47D breast = test system: T-47D breast
MOLT-4 leukemia = test system: MOLT-4 leukemia
MDA-MB-435 = test system: MDA-MB-435
786-0 renal = test system: 786-0 renal
U251 CNS = test system: U251 CNS
OVCAR-8 ovarian = test system: OVCAR-8 ovarian
MDA-MB-231 breast = test system: MDA-MB-231 breast
UACC-62 melanoma = test system: UACC-62 melanoma
PC-3 prostate = test system: PC-3 prostate
LOX IMVI melanoma = test system: LOX IMVI melanoma
K-562 leukemia = test system: K-562 leukemia
SNB-75 CNS = test system: SNB-75 CNS
SF-539 CNS = test system: SF-539 CNS
NCI-H522 lung = test system: NCI-H522 lung
SK-MEL-28 melanoma = test system: SK-MEL-28 melanoma
NCI-H460 lung = test system: NCI-H460 lung
DU-145 prostate = test system: DU-145 prostate
ACHN renal = test system: ACHN renal
RXF 393 renal = test system: RXF 393 renal

SMILES	TGI (T-47D breast) [µM]	TGI (MOLT-4 leukemia) [µM]	TGI (MDA-MB-435) [µM]	TGI (786-0 renal) [µM]	TGI (U251 CNS) [µM]	TGI (OVCAR-8 ovarian) [µM]	TGI (MDA-MB-231 breast) [µM]	TGI (UACC-62 melanoma) [µM]	TGI (PC-3 prostate) [µM]	TGI (LOX IMVI melanoma) [µM]	TGI (K-562 leukemia) [µM]	TGI (SNB-75 CNS) [µM]	TGI (SF-539 CNS) [µM]	TGI (NCI-H522 lung) [µM]	TGI (SK-MEL-28 melanoma) [µM]	TGI (NCI-H460 lung) [µM]	TGI (DU-145 prostate) [µM]	TGI (ACHN renal) [µM]	TGI (RXF 393 renal) [µM]
O=C(NNC1=NCCCN1)c1ccco1	> 100	> 100	> 100	> 100	> 100	> 100	> 100	> 100	> 100	> 100	> 100	> 100	> 100	> 100	> 100	> 100	> 100	> 100	> 100
CCOC(=O)C(NC(C)=O)(Nc1ccc(S(N)(=O)=O)cc1)C(F)(F)F (stereo unspecified)	> 100	> 100	> 100	> 100	> 100	> 100	> 100	–	> 100	> 100	> 100	> 100	> 100	> 100	> 100	> 100	> 100	> 100	> 100
O=C1CSC(c2ccccc2)N1c1ccc(-n2c(-c3ccccc3)nc3ccccc3c2=O)cc1 (stereo unspecified)	> 100	> 100	> 100	> 100	> 100	> 100	> 100	> 100	> 100	> 100	> 100	> 100	> 100	> 100	> 100	> 100	> 100	> 100	> 100
C/C=C/C=C\C=C/C(O)C(C)C(CCC(C)C1OC(=O)C=CC1C)OP(=O)(O)O (stereo unspecified)	1.46	0.613	0.773	1.51	2.5	1.26	> 71.1	1.11	0.549	1.09	0.905	2.85	1.7	2.89	2.12	1.76	1.76	1.26	1.38
N#Cc1ccc(-c2nc3c(N)nc(-c4ccccc4)nc3o2)cc1	> 100	> 100	> 100	> 100	27.7	> 100	46.2	> 100	> 100	> 100	> 100	> 100	22.3	> 100	> 100	> 100	> 100	> 100	> 100
N#CC(C#N)=C/C=C/c1c(Cl)cccc1Cl	6.19	9.01	4.59	3.35	4.08	3.48	3.52	2.91	3.68	3.36	8.56	> 10	2.96	3.06	3.05	4.08	3.2	3.19	2.97
CCOC(=O)Cc1nnc2n(-c3ccccc3)c(=O)c3ccccc3n12	> 100	> 100	> 100	> 100	> 100	> 100	> 100	> 100	> 100	> 100	> 100	> 100	> 100	> 100	> 100	> 100	> 100	> 100	> 100
C=C1[C@H](OCC(C)C)[C@@H](O)[C@@H](OC(=O)c2cccnc2)C(C)(C)/C=C/[C@H](C)[C@H](OC(C)=O)[C@@]2(O)C[C@@](C)(OC(C)=O)[C@H](OC(=O)c3ccccc3)[C@@H]2[C@H]1OC(C)=O	> 5	> 2.79	> 3.97	> 5	> 5	> 3.28	> 5	> 5	> 5	> 5	> 3.36	> 2.87	1.58	2.54	> 5	1.52	> 5	2.87	> 5
C=CCC1(Sc2ccccn2)Sc2ccc3ccccc3c2-c2c(ccc3ccccc23)S1	> 100	> 100	> 100	> 100	> 100	> 100	> 100	> 100	> 100	> 100	> 100	> 100	> 100	> 100	> 100	> 100	> 100	> 100	> 100
CC(O)CN1c2ccccc2Sc2ccccc21 (stereo unspecified)	> 100	> 100	> 100	> 100	> 100	> 100	> 100	> 100	> 100	> 100	> 100	–	> 100	> 100	> 100	> 100	> 100	> 100	> 100
CC(NCc1c(O)ccc2ccc(=O)oc12)C(=O)O (stereo unspecified)	> 100	> 100	> 100	> 100	> 100	> 100	> 100	> 100	> 100	> 100	> 100	> 100	> 100	> 100	> 100	> 100	> 100	> 100	> 100
COc1ccc2c(=O)cc(-c3ccc(OC)c(OC)c3OC)oc2c1	> 100	> 100	> 100	> 100	> 100	> 100	> 100	> 100	> 100	> 100	> 100	> 92.6	> 100	> 100	> 100	> 100	> 100	> 100	> 100
